In US9511196B2, “Systems and methods for promoting wound healing” (priority 2009, dated 2016):
Like-named read-outs stand apart in the source and are kept apart here.

Experiments:
normal excisional wounds = test: Normal excisional wound: wound size after gas treatment; format: in vivo, rat; conditions: 1000 ppm NO or 250 ppm CO, 15 minutes four times per day; for wound area shrunk to % of initial: day 3; for wound size/area as % of its starting point: day 10
Experimental: (§1) Provided methods and apparatus were tested on second degree burn wounds (normal and diabetic), excisional wounds (normal and diabetic), and surgical incisional wounds (normal and diabetic) in rat models. Various treatment protocols were evaluated and dose and time dependent studies were carried out on normal excisional wounds to determine the [NO] and [ONOO^−] release profile using exogenous NO and CO.
(§2) All gas mixtures were prepared and stored in HandyGrab Tedlar gas sampling bag with capacity of 0.6 liter (Zefon International, St. Petersburg, Fla., cat#HG-PP-06) prior to each treatment. Static mixing with nitrogen as a diluting gas was performed. To prepare nitric oxide mixtures in nitrogen, a sample of 1000 ppm nitric oxide in nitrogen (Airgas Specialty Gases, Chicago, Ill.) was drawn with a 50 cubic centimeters (cc) disposable medical syringe and then transferred to a Tedlar bag through an injection port. Then the appropriate volume of nitrogen (Airgas Inc., Radur, Pa.) was delivered to the bag that was controlled by a Riteflow® flowmeter (Bel-Art Products, Pequannock, N.J.). The same technique was used to prepare carbon monoxide mixtures in nitrogen, but a 1 cc disposable medical syringe was used to dosage pure carbon monoxide (Air Products and Chemicals Inc., Parkersburg, W. Va.). To calculate the concentrations of mixed gases, the following Equation 2 was applied: Cppm=Vc/(Vc+Vd)×10^6·ppm (2) where Vc is the target gas volume and Vd is the dilutant volume.
(§3) Once the rats were prepared with a modified gas delivery system in place, 20 cm^3 of nitrogen was purged through whole gas capsule to remove air. Then 20 cm^3 of a therapeutic gas mixture was delivered in a medical syringe to a gas vent, and the gas vent was sealed. The wounds were exposed to gas mixtures for specified period of times (15 minutes to 1 hour). The treatment was repeated four times a day, while the rat was awake and fully ambulatory. Negative control wounds remained uncovered, allowing access of air to the wound site. Positive control wounds were exposed to pure nitrogen, which served as the diluting gas for every mixture prepared.
After a specified time interval (1 day, 3 days, 5 days, 7 days, 10 days), rats were again anesthetized with a mixture of ketamine (50 mg/kg I.M.) and xylazine (5 mg/kg I.M.). The gas delivery system was removed by applying few drops of Uni-Solve® (Smith & Nephew Inc. Largo, Fla. 33773), which enabled the removal of the gas delivery system from the skin. Wounds were then removed using a 6 mm in diameter biopsy punch (Miltex, Inc. York, Pa. cat #33-36). Removed wounds were immediately used to measure the NO and ONOO^− release or frozen in liquid nitrogen to be later subjected to hydroxyproline analysis and western blot analysis or embedded in TBS Tissue Frizzing Medium for histological analysis. After the wounded tissue was removed, the rats were euthanized by injecting pentothal at a dose of 150 mg/kg. The rats were then placed in cold storage in an animal care facility.
In FIG. 9, depicted are changes in wound size of a normal excisional wound after treatment with either NO or CO. The photographs were taken at 1, 3, 5, 7 and 10 days after wounding. Normal excisional wounds were treated with either 1000 ppm NO or 250 ppm of CO gas mixtures for 15 minutes four times per day with at least an hour break between treatments. A marker 305 was placed next to each excisional wound to show the size/area of the original wound. […] A very rapid drop in wound area was observed between the 5th and 7th day of healing. […] At day 10, the wound area/size had decreased to 31%+/−5% of its initial starting point. […] At day 3, the area of the NO treated wound had shrunk to 58±4.9%, and the area of gCO treated wound had shrunk to 63±5.7%, whereas the area of untreated wound decreased to 81±6.1%. By day 10 NO treated wounds were much smaller than the untreated wounds and had decreased in size/area to 15%+/−3.8% of its starting point.

[1] = system: diabetic type I excisional wounds; test: Type I diabetes model: excisional wound contraction after gas treatment; format: in vivo, rat; conditions: for effect on diabetic wound contraction / wound area as % of its initial area / wound size as % of its starting point: 1000 ppm NO or 250 ppm CO, 15 minutes four times per day
Experimental: Male Sprague-Dawley rats (body weight 400-450 g) were used for these studies, were kept in an animal care facility for 48 h at 21° C. in a temperature controlled room with a 12 h light/dark cycle and 30-70% air-changed humidity. Animals were allowed unlimited access to regular chow food and drinking water. Diabetes type I was induced in rats by injection of streptozotocin (STZ) (65 mg/kg in pH 4.5 citrate buffer, IP). To relieve the pain associated with the intraperitoneal streptozotocin injection, rats were first put under deep anesthesia by injecting (ketamine 50 mg/kg IM, xylazine 5 mg/kg, IM). Anesthesia levels were checked by corneal reflex and toe pinch, and sustained by additional injections of the ketamine and xylazine mixture. After 10 days of streptozotocin injections the blood glucose levels were measured to determine if the rats could be considered diabetic. If the blood glucose level was above 300 mg/dL, the rat was considered diabetic. Rats were fasted overnight before the glucose level was measured. After injecting anesthesia, the tip of the tail was sterilized by wiping it with 70% alcohol. Approximately 2 mm of the tail was cut off to withdraw a sample of blood (35 μl), and the tip was compressed for 45-60 seconds to stop the bleeding.
The diabetic rats were then anesthetized (if needed) with a mixture of ketamine (50 mg/kg I.M.) and xylazine (5 mg/kg I.M.) administered intraperitoneally. Once anesthetized, hair was removed from the rats' backs using an electric razor and the backs of the rat were subsequently wiped with a 70% ethyl alcohol swab. On either side of the midline of the rat's back, four excision wounds were made with a sterile about 5 mm in diameter Biopsy Punch (Miltex, Inc. York, Pa. cat#33-35). The resulting wounds were approximately 4 mm deep and were deprived of epidermis, dermis and subcutaneous fat. Immediately after wounding, the gasket of an exemplary gas delivery system as disclosed herein was bonded to the skin area surrounding each treated wound by means of a thin layer of Skin-Bond® Cement (Smith & Nephew Inc. Largo, Fla. 33773).
After the surgery and during the recovery period from anesthesia, rats were turned from side to side to avoid pulmonary edema and to ensure unobstructed breathing. The rats were transferred to cages lined with sterile drape and contained moist food. To minimize any stress associated with pain, the rats were injected subcutaneously with analgesic (Butorphanol 1-2 mg/kg) every four hours for a maximum period of 2 days. Additionally, 1-2 ml of warm sterile saline/100 g of body weight was injected subcutaneously during the recovery period to prevent dehydration. Once the rats were completely awake, they were placed in cages with free access to food and drinking water. During the postoperative care period, rats were monitored for signs of infection, or self inflicted trauma. Additionally food and water intake was monitored. The diabetic rats were subjected to treatment as described below.
as §2, with “To calculate the concentrations of mixed gases, the following Equation 2 was applied: Cppm=Vc/(Vc+Vd)×10^6·ppm (2) where Vc is the target gas volume and Vd is the dilutant volume.” left out

2nd degree burn wounds = test: Burn wound model: change in burn wound area after gas treatment; format: in vivo, rat; conditions: 1000 ppm NO or 250 ppm CO, 15 minutes four times per day; for effect on burn healing compared to untreated burn wound: 10 days
Experimental: Similar to the rats used for the type I diabetic model, Rats were anesthetized with the mixture of ketamine 50 mg/kg IM and xylazine 5 mg/kg IM administered intraperitoneally. Anesthesia levels were maintained by additional injections of this mixture as needed. Each rat was allowed to breathe spontaneously. Hair was removed from the rats' backs and the backs of the rat were subsequently wiped with 70% ethanol. The standard rat burn model was used in which burns are produced by hot metal used as a heat source. A customized soldering iron was used to cause superficial dermal second-degree burns on. the backs of the rats. […] It was heated to 80° C. and applied to the skin for 10 seconds, which caused second degree burns. Immediately after wounding, the gasket of an exemplary gas delivery system as disclosed herein was bonded to the skin area surrounding each treated wound by means of a thin layer of Skin-Bond® Cement (Smith & Nephew Inc. Largo, Fla. 33773). The animals were then transferred to individual cages for recovery. Rats received an analgesic (Butorphanol 1-2 mg/kg) injected subcutaneously every four hours for a maximum period of 2 days. To prevent dehydration, 1-2 ml of warm sterile saline/100 g of body weight was injected subcutaneously during the recovery period. The treatment procedures described in more detail below were executed in the same way for the burn wound model as the diabetic wound model. After a certain time period, the rats were again anesthetized using the procedure described above and the wounded skin was taken from the backs of these rats for analysis. Then rats were then euthanized with pentothal (150 mg/kg) injected intraperitoneally.
as §2
as §3, with “prepared. […]” for “prepared.”

[2] = system: burn, excisional and surgical incisional wounds; test: Wound healing time in rat wound models (burn, excisional, incisional; normal and diabetic); format: in vivo; conditions: exogenous gas treatment
Experimental: as §1
It is believed that gasotransmitters NO, O2 and CO delivered locally to a wound site may influence the healing process via changing the NO/ONOO^− balance. […] As a result, there was a high formation of cytotoxic ONOO^−, which can contribute to wound healing impairment. Accordingly, wounds were exposed individually to either gaseous NO or CO using a modified gas delivery system surrounding an injured area. To determine the efficacy of gas therapy in restoring the NO/ONOO^− balance, treated wounds were subjected to NO and ONOO^− measurements. Also, eNOS and iNOS expression levels were determined using western blotting. Collagen formation and maturation, also wound contraction were investigated and compared to results of untreated wounds.

[3] = inhaled for over 30 min; cited from earlier work
rat model of wound = format: in vivo
Experimental: In vivo efficiency of the provided gas delivery system in the process of accelerating wound healing was also tested. For these experiments, a rat model of wound was studied. Indexes of post-ischemic injury included: morphometric analysis, tissue edema, using a laser rate of wound healing process, level of collagen, and breaking strength.

[4] = about 50-1000 ppm NO, about 50-250 ppm CO, about 100% O2

Row | Structure (SMILES) | effect on normal excisional wound contraction (normal excisional wounds) | wound area shrunk to % of initial (normal excisional wounds) [%] | wound size/area as % of its starting point (normal excisional wounds) | effect on diabetic wound contraction [1] | wound area as % of its initial area ([1]; day 7) [%] | size difference between treated and untreated diabetic excisional wounds ([1]; day 10) [%] | wound size as % of its starting point ([1]; day 10) | effect on burn healing compared to untreated burn wound (2nd degree burn wounds) | increase of burn wound area (2nd degree burn wounds; day 3) [%] | increase of burn wound area (2nd degree burn wounds; day 10) | decreased wound healing time (versus control, untreated) [2] | concentration believed to be dangerous when inhaled [3] | wound healing in a single gas treatment (rat model of wound; [4]) | wound area as % of its initial area ([1]; day 5) [%] | wound healing in a single gas treatment (rat model of wound; rat, in vivo)
1 | [N]=O [NO, nitric oxide] | accelerated wound contraction and resulted in a significant decrease in wound size | 58±4.9 | 15%+/−3.8 | accelerated wound contraction and stimulated wound repair | 57.8±3.1 | ~17 | 29.8%+/−2.5 | reduced swelling and accelerated burn healing process | 76.3±4.2 | roughly 58.0%+/−3.1 | 30-50% | > 500 ppm | good results |  | 
2 | [C-]#[O+] [CO, carbon monoxide] | accelerated wound contraction and resulted in a significant decrease in wound size | 63±5.7 | 22.2%+/−3.3 | some influence on wound contraction |  |  | 41.4%+/−2.8 | reduced swelling and accelerated burn healing process |  | roughly 67.1%+/−3.5 | at least 20% | higher than 1500 ppm | good results | 82.6±3.7 | 
3 | O=O [O2, Oxygen] |  |  |  |  |  |  |  |  |  |  |  |  |  |  | good results
